The supplement of paper PMC10307832

How the values were obtained:
Test in all cases: relative viability (nuclei count vs DMSO), 5 days (fraction); higher = more cells survive
[1] = compound: CC1=CN2C(=O)C=C(N=C2C(=C1)C(C)NC3=CC=CC=C3)N4CCOCC4 [TGX 221] + CC(C)C[C@H](NC(=O)[C@H](Cc1ccccc1)NC(=O)c1cnccn1)B(O)O [Bortezomib] (partner 0.002 µM)
Method in brief: (§1)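 Relative viability equals treated-well nuclei counts divided by vehicle-well nuclei counts. Counts came from 4× images of lung cancer cell lines grown in 1536-well plates for 5 days after pin-tool dosing on the day after seeding. Dosing used one drug alone or a fixed anchor-drug dose plus five library-drug doses (not always all listed) in √10 steps, and values are medians of duplicate plates.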

[2] = compound: O=C(CCCCCCNC(=O)c1cnc(N(c2ccccc2)c2ccccc2)nc1)NO [Ricolinostat] + Nc1nc2[nH]cc(CCc3ccc(C(=O)N[C@@H](CCC(=O)O)C(=O)O)cc3)c2c(=O)[nH]1 [Pemetrexed] (partner 0.2 µM)
Method in brief: as §1

[3] = compound: O=C(CCCCCCNC(=O)c1cnc(N(c2ccccc2)c2ccccc2)nc1)NO [Ricolinostat] + CC1(C)CCC(c2ccc(Cl)cc2)=C(CN2CCN(c3ccc(C(=O)NS(=O)(=O)c4ccc(N[C@H](CCN5CCOCC5)CSc5ccccc5)c(S(=O)(=O)C(F)(F)F)c4)cc3)CC2)C1 [Navitoclax] (partner 0.5 µM)
Method in brief: as §1

[4] = compound: CC1=CN2C(=O)C=C(N=C2C(=C1)C(C)NC3=CC=CC=C3)N4CCOCC4 [TGX 221] + Cc1cc(Nc2cc(N3CCN(C)CC3)nc(Sc3ccc(NC(=O)C4CC4)cc3)n2)n[nH]1 [Tozasertib] (partner 0.1 µM)
Method in brief: as §1

Cell Line	relative viability ([1]; first compound 0.08 µM)	relative viability ([1]; first compound 0.253 µM)	relative viability ([1]; first compound 0.8 µM)	relative viability ([1]; first compound 2.53 µM)	relative viability ([1]; first compound 8 µM)	relative viability ([2]; first compound 0.08 µM)	relative viability ([2]; first compound 0.253 µM)	relative viability ([2]; first compound 0.8 µM)	relative viability ([2]; first compound 2.53 µM)	relative viability ([3]; first compound 0.08 µM)	relative viability ([3]; first compound 0.253 µM)	relative viability ([3]; first compound 0.8 µM)	relative viability ([3]; first compound 2.53 µM)	relative viability ([4]; first compound 0.08 µM)	relative viability ([4]; first compound 0.253 µM)	relative viability ([4]; first compound 0.8 µM)	relative viability ([4]; first compound 2.53 µM)	relative viability ([4]; first compound 8 µM)
LXF-289	1.02	0.979	0.915	0.974	1.06	0.935	0.775	0.895	0.792	0.904	0.927	0.914	0.878	0.215	0.235	0.201	0.202	0.114
NCI-H23	0.861	1.21	1.11	1.03	0.963	0.562	0.642	0.684	0.737	0.82	0.791	0.924	0.932	0.461	0.393	0.386	0.322	0.241
NCI-H322M	1.15	1.09	1.15	1.18	1.11	0.61	0.607	0.639	0.646		1.2	1.27	1.08	0.513	0.468	0.446	0.442	0.44
NCI-H441	0.515	0.772	0.416	0.566	0.389	0.267	0.25	0.289	0.272	0.77	0.411	0.798	0.357	0.605	0.569	0.737	0.611	0.695
NCI-H460	0.724	0.922	1.02	1.11	1	0.0618	0.0585	0.0722	0.0727	1.12	0.93	1.08	1.21	0.383	0.489	0.639	0.0964	0.131
NCI-H520	0.345	0.457	0.56	0.263	0.309		0.762	0.744	0.628		1.11	1.01	1.02	0.469	0.385	0.382	0.304	0.303
NCI-H596	1.17	1.21	0.938	0.871	0.948	0.511	0.527	0.504	0.52	0.951	0.954	0.858	0.887	0.94	0.944	0.91	0.864	0.61
NCI-H647	0.929	0.66	0.926	0.676	0.616	0.192	0.18	0.174	0.134	0.806	1.12	1.09	1.09	0.284	0.219	0.312	0.285	0.122
NCI-H838	0.751	0.853	0.713	0.712	0.544	0.236	0.273	0.259	0.208	0.97	1.13	1.19	0.967	0.276	0.257	0.282	0.247	0.192
NCI-H1355	1.18	1.16	1.26	1.12	1.08	0.916	1.07	0.95	1.01		0.916	0.887	0.747	0.541	0.564	0.621	0.483	0.382
NCI-H1437	0.535	0.53	0.522	0.414	0.486	0.329	0.32	0.276	0.263	1	1.07	1.02	0.831	0.383	0.406	0.404	0.361	0.311
NCI-H1650	0.2	0.22	0.213	0.198	0.201	0.379	0.403	0.337	0.349	0.948	1.19	1.12	0.82	0.399	0.412	0.381	0.297	0.235
NCI-H1651		0.96	0.919	0.868	0.858	0.463	0.571	0.55	0.552	0.913	0.993	1.02	0.854	0.602	0.649	0.696	0.566	0.418
NCI-H1666	0.771	0.723	0.872	0.648	0.764	0.805	0.841	0.867	0.871	0.909	1.12	0.816	0.471	0.6	0.591	0.6	0.576	0.538
NCI-H1734	0.876	0.893	0.853	0.779	0.823	0.446	0.414	0.448	0.473	0.645	0.826	0.924	0.78	0.247	0.247	0.263	0.263	0.271
NCI-H1755	1.03	0.855	0.97	0.887	0.886	0.405	0.386	0.343	0.418	0.864		0.981	0.912	0.522	0.499	0.521	0.538	0.428
NCI-H1915	0.897	0.963	1.04	0.914	1.02	0.399	0.416	0.458	0.397	0.797	0.746	0.778	0.712	0.399	0.406	0.422	0.389	0.377

Cell Line	relative viability ([1]; first compound 0.08 µM)	relative viability ([1]; first compound 0.253 µM)	relative viability ([1]; first compound 0.8 µM)	relative viability ([1]; first compound 2.53 µM)	relative viability ([1]; first compound 8 µM)	relative viability ([2]; first compound 0.08 µM)	relative viability ([2]; first compound 0.253 µM)	relative viability ([2]; first compound 0.8 µM)	relative viability ([2]; first compound 2.53 µM)	relative viability ([3]; first compound 0.08 µM)	relative viability ([3]; first compound 0.253 µM)	relative viability ([3]; first compound 0.8 µM)	relative viability ([3]; first compound 2.53 µM)	relative viability ([4]; first compound 0.08 µM)	relative viability ([4]; first compound 0.253 µM)	relative viability ([4]; first compound 0.8 µM)	relative viability ([4]; first compound 2.53 µM)	relative viability ([4]; first compound 8 µM)
NCI-H1975	0.459	0.351	0.384	0.39	0.305	0.329	0.279	0.277	0.269	1.07	1.1		0.877	0.759	0.685	0.761	0.569	0.382
NCI-H1993	0.932	0.838	0.963	0.785	0.892	0.549	0.581	0.615	0.547	0.798	1.11	1.01	1.04	0.498	0.53	0.553	0.482	0.572
NCI-H2009	0.995	1.02	1.02	0.948	0.769	0.977	1.02	0.965	0.92	1.14	1.11	1.09	1.07	0.739	0.714	0.73	0.631	0.436
NCI-H2023	0.947	0.864	1.06	0.861	0.857	0.196	0.192	0.208	0.163	0.849	1.01	0.995	0.906	0.332	0.297	0.397	0.302	0.145
NCI-H2085	1.05	0.856	0.889	0.809	0.724		0.799	0.738	0.758		1.14	1	0.947	0.792	0.729	0.598	0.541	0.427
NCI-H2087	0.832	0.759	0.916	0.956	1.06	0.656	0.646	0.608	0.584	0.96	1.04	1.02	1.04	0.254	0.269	0.231	0.217	0.233
NCI-H2126	1.09	1.08	1.06	1.06	1.08	0.509	0.708	0.619	0.583	0.666	0.807	0.836	0.679	0.826	0.886	0.797	0.768	0.756
NCI-H2228	1.02	0.787	1.21	0.77	0.751	0.311	0.31	0.285	0.345	0.951	0.987	0.8	0.693	0.251	0.262	0.261	0.215	0.167
NCI-H2347		0.899	0.886	0.877	0.752	0.409	0.382	0.429	0.449	0.623	0.739	0.73	0.671	0.514	0.418	0.538	0.422	0.33
NCI-H2405	0.94	1.04	1.01	0.92	0.953	0.916	1.04	1.06	1.12	0.577	0.935	0.975	0.77	0.737	0.771	0.693	0.745	0.697
NCI-H3122	1.02	1.04	0.969	0.941	1.02	0.18	0.205	0.207	0.198	0.918	0.984	1.07	1.14	0.368	0.402	0.372	0.34	0.379
PC-3 [JPC-3]	0.759	0.73	0.883	0.735	0.851	0.845	1.11	0.738	1	0.778	0.77	0.739	0.574	0.822	0.913	0.838	0.856	0.833
PC-14	0.895	0.89	0.828	0.804	0.874	0.147	0.139	0.141	0.195	0.968	0.947	1.05	0.962	0.619	0.615	0.631	0.589	0.459
RERF-LC-KJ	0.908	1.06	1.27	0.961	1.01	0.492	0.427	0.447	0.374	0.831	0.993	0.841	0.787	0.465	0.555	0.496	0.488	0.382
SK-LU-1	1.04	1.09	1.04	1.38	1.11	1.06	0.97	0.949	0.864	0.863	0.816	0.642	0.502	0.346	0.356	0.321	0.343	0.308
SW 1573	0.91	1.09	1.04	0.945	0.839	0.857	0.742	1.07	0.864	0.807	0.993	0.901	1.01	0.175	0.208	0.211	0.165	0.207
UMC-11	0.873	0.772	0.823	0.745	0.796	0.751	0.767	0.728	0.374	0.31	0.343	0.267	0.158	0.183	0.195	0.204	0.203	0.194
